Laboratory results taken from ChEMBL document CHEMBL3045943, “Novel N-aryl(alkaryl)-2-[(3-R-2-oxo-2H-[1,2,4]triazino[2,3-c]quinazoline-6-yl)thio]acetamides: synthesis, cytotoxicity, anticancer activity, COMPARE analysis and docking” (2013).

Columns and labels:
Assay type in all cases: functional
MDA-MB-468 = test: Cytotoxicity against Homo sapiens (human) MDA-MB-468 cells assessed as cell growth at 10 uM after 48 hr by SRB assay relative to control; settings: MDA-MB-468, 48 h, read-out: Activity
MCF7 [1] = test: Cytotoxicity against Homo sapiens (human) MCF7 cells assessed as cell growth at 10 uM after 48 hr by SRB assay relative to control; settings: MCF7, 48 h, read-out: Activity
RXF 393 = test: Cytotoxicity against Homo sapiens (human) RXF393 cells assessed as cell growth at 10 uM after 48 hr by SRB assay relative to control; settings: RXF 393, 48 h, read-out: Activity
OVCAR-4 = test: Cytotoxicity against Homo sapiens (human) OVCAR4 cells assessed as cell growth at 10 uM after 48 hr by SRB assay relative to control; settings: OVCAR-4, 48 h, read-out: Activity
UACC-62 [2] = test: Cytotoxicity against Homo sapiens (human) UACC62 cells assessed as cell growth at 10 uM after 48 hr by SRB assay relative to control; settings: UACC-62, 48 h, read-out: Activity
UACC-257 = test: Cytotoxicity against Homo sapiens (human) UACC257 cells assessed as cell growth at 10 uM after 48 hr by SRB assay relative to control; settings: UACC-257, 48 h, read-out: Activity
SK-MEL-5 [3] = test: Cytotoxicity against Homo sapiens (human) SK-MEL-5 cells assessed as cell growth at 10 uM after 48 hr by SRB assay relative to control; settings: SK-MEL-5, 48 h, read-out: Activity
Malme-3M [4] = test: Cytotoxicity against Homo sapiens (human) MALME-3M cells assessed as cell growth at 10 uM after 48 hr by SRB assay relative to control; settings: read-out: Activity
HOP-62 = test: Cytotoxicity against Homo sapiens (human) HOP62 cells assessed as cell growth at 10 uM after 48 hr by SRB assay relative to control; settings: HOP-62, 48 h, read-out: Activity
OVCAR-3 = test: Cytotoxicity against Homo sapiens (human) OVCAR3 cells after 48 hr by SRB assay; settings: OVCAR-3, 48 h
UACC-62 [5] = test: Cytotoxicity against Homo sapiens (human) UACC62 cells after 48 hr by SRB assay; settings: UACC-62, 48 h
Malme-3M [6] = test: Cytotoxicity against Homo sapiens (human) MALME-3M cells after 48 hr by SRB assay
U-251 = test: Cytotoxicity against Homo sapiens (human) U251 cells after 48 hr by SRB assay; settings: U-251, 48 h
HOP-92 [7] = test: Cytotoxicity against Homo sapiens (human) HOP92 cells after 48 hr by SRB assay; settings: HOP-92, 48 h
MCF7 [8] = test: Cytotoxicity against Homo sapiens (human) MCF7 cells after 48 hr by SRB assay; settings: MCF7, 48 h
DU-145 = test: Cytotoxicity against Homo sapiens (human) DU145 cells after 48 hr by SRB assay; settings: DU-145, 48 h
TK-10 = test: Cytotoxicity against Homo sapiens (human) TK10 cells after 48 hr by SRB assay; settings: TK-10, 48 h
HT-29 = test: Cytotoxicity against Homo sapiens (human) HT-29 cells assessed as cell growth at 10 uM after 48 hr by SRB assay relative to control; settings: HT-29, 48 h, read-out: Activity
HCT-15 = test: Cytotoxicity against Homo sapiens (human) HCT15 cells assessed as cell growth at 10 uM after 48 hr by SRB assay relative to control; settings: HCT-15, 48 h, read-out: Activity
NCI-H522 = test: Cytotoxicity against Homo sapiens (human) NCI-H522 cells assessed as cell growth at 10 uM after 48 hr by SRB assay relative to control; settings: NCI-H522, 48 h, read-out: Activity
SNB-75 = test: Cytotoxicity against Homo sapiens (human) SNB75 cells assessed as cell growth at 10 uM after 48 hr by SRB assay relative to control; settings: SNB-75, 48 h, read-out: Activity
PC-3 = test: Cytotoxicity against Homo sapiens (human) PC3 cells assessed as cell growth at 10 uM after 48 hr by SRB assay relative to control; settings: PC-3, 48 h, read-out: Activity
A498 = test: Cytotoxicity against Homo sapiens (human) A498 cells assessed as cell growth at 10 uM after 48 hr by SRB assay relative to control; settings: A498, 48 h, read-out: Activity
CAKI-1 = test: Cytotoxicity against Homo sapiens (human) Caki1 cells after 48 hr by SRB assay; settings: CAKI-1, 48 h
ACHN = test: Cytotoxicity against Homo sapiens (human) ACHN cells after 48 hr by SRB assay
786-0 = test: Cytotoxicity against Homo sapiens (human) 786-0 cells after 48 hr by SRB assay; settings: 786-0, 48 h
IGROV-1 = test: Cytotoxicity against Homo sapiens (human) IGROV1 cells after 48 hr by SRB assay; settings: IGROV-1, 48 h
SK-MEL-5 [9] = test: Cytotoxicity against Homo sapiens (human) SK-MEL-5 cells after 48 hr by SRB assay; settings: SK-MEL-5, 48 h
LOX IMVI = test: Cytotoxicity against Homo sapiens (human) LOXIMVI cells after 48 hr by SRB assay
HCT-116 = test: Cytotoxicity against Homo sapiens (human) HCT116 cells after 48 hr by SRB assay; settings: HCT-116, 48 h
BT-549 = test: Cytotoxicity against Homo sapiens (human) BT549 cells after 48 hr by SRB assay; settings: BT-549, 48 h
HOP-92 [10] = test: Cytotoxicity against Homo sapiens (human) HOP92 cells assessed as cell growth at 10 uM after 48 hr by SRB assay relative to control; settings: HOP-92, 48 h, read-out: Activity
[11] = read-out: pLC50 (the source's name) (converted)

## COc1ccc(-c2nn3c(SCC(=O)Nc4ccccc4Cl)nc4ccccc4c3nc2=O)cc1
MDA-MB-468
  growth at 10 µM: 44.3%
MCF7 [1]
  growth at 10 µM: 32.8%
RXF 393
  growth at 10 µM: 37.4%
OVCAR-4
  growth at 10 µM: 45%
UACC-62 [2]
  growth at 10 µM: 18.1%
UACC-257
  growth at 10 µM: -17.1%
SK-MEL-5 [3]
  growth at 10 µM: 41.4%
Malme-3M [4]
  growth at 10 µM: 18.8%
HOP-62
  growth at 10 µM: 30.3%
OVCAR-3
  GI50: 1.38 µM
OVCAR-3; [11]
  CC50: > 100 µM
OVCAR-3; read-out: pTGI (converted)
  TGI: 3.31 µM
UACC-62 [5]
  GI50: 2.75 µM
UACC-62 [5]; [11]
  CC50: > 100 µM
UACC-62 [5]; read-out: pTGI (converted)
  TGI: 67.6 µM
Malme-3M [6]
  GI50: 1.86 µM
Malme-3M [6]; [11]
  CC50: > 100 µM
Malme-3M [6]; read-out: pTGI (converted)
  TGI: 7.94 µM
U-251
  GI50: 1.78 µM
  LC50: 18.6 µM
U-251; read-out: pTGI (converted)
  TGI: 4.68 µM
HOP-92 [7]
  GI50: 1.82 µM
HOP-92 [7]; [11]
  CC50: 42.7 µM
HOP-92 [7]; read-out: pTGI (converted)
  TGI: 9.12 µM
MCF7 [8]
  GI50: 2.34 µM
MCF7 [8]; [11]
  CC50: > 100 µM
MCF7 [8]; read-out: pTGI
  TGI: > 100 µM
DU-145
  GI50: 1.38 µM
DU-145; [11]
  CC50: > 100 µM
DU-145; read-out: pTGI
  TGI: > 100 µM
TK-10
  GI50: 2.19 µM
TK-10; [11]
  CC50: 33.9 µM
TK-10; read-out: pTGI (converted)
  TGI: 7.24 µM
HT-29
  growth at 10 µM: 5.16%
HCT-15
  growth at 10 µM: 71.9%
NCI-H522
  growth at 10 µM: 36.5%
SNB-75
  growth at 10 µM: 55.6%

## COc1ccccc1CNC(=O)CSc1nc2ccccc2c2nc(=O)c(-c3ccccc3)nn12
PC-3
  growth at 10 µM: 35.6%
A498
  growth at 10 µM: -23.1%
CAKI-1
  GI50: 1.91 µM
CAKI-1; [11]
  CC50: > 100 µM
CAKI-1; read-out: pTGI
  TGI: > 100 µM
ACHN
  GI50: 1.86 µM
ACHN; [11]
  CC50: > 100 µM
ACHN; read-out: pTGI
  TGI: > 100 µM
786-0
  GI50: 2.24 µM
786-0; [11]
  CC50: > 100 µM
786-0; read-out: pTGI
  TGI: 5.25 µM
IGROV-1
  GI50: 3.02 µM
IGROV-1; [11]
  CC50: > 100 µM
IGROV-1; read-out: pTGI
  TGI: > 100 µM
SK-MEL-5 [9]
  GI50: 2.69 µM
  LC50: > 100 µM
SK-MEL-5 [9]; read-out: pTGI
  TGI: > 100 µM
LOX IMVI
  GI50: 2.09 µM
LOX IMVI; [11]
  CC50: > 100 µM
LOX IMVI; read-out: pTGI
  TGI: > 100 µM
HCT-116
  GI50: 2.69 µM
HCT-116; [11]
  CC50: > 100 µM
HCT-116; read-out: pTGI
  TGI: > 100 µM
BT-549
  GI50: 2.14 µM
  LC50: 74.1 µM
BT-549; read-out: pTGI (converted)
  TGI: 3.98 µM
HOP-92 [10]
  growth at 10 µM: 26.2%
